Experimental data: publication PMC7773830, “Necator americanus Ancylostoma Secreted Protein-2 (Na-ASP-2) Binds an Ascaroside (ascr#3) in Its Fatty Acid Binding Site” (Frontiers in Chemistry, 2020)
Where two headings read alike, the source gives them in different places.

Columns and labels:
Na-ASP-2 [1] = target: T1, Na-ASP-2 (Necator americanus, UniProt Q7Z1H1); experiment: Microscale thermophoresis; format: binding
Procedure: (§1) Microscale thermophoresis was performed using a Monolith NT.115 from Nanotemper Technologies (Munich, Germany) (Seidel et al., [2012]; Shang et al., [2012]; Zillner et al., [2012]). His-tagged protein (Pry1 or Na-ASP-2) was fluorescently labeled using the RED-tris-NTA His-tag protein labeling kit (Nanotemper Technologies). Labeled protein (Pry1 or Na-ASP-2) was subsequently added to serial dilution of unlabeled ligand (ascarosides or their fatty acid moieties) in binding buffer (20 mM Tris pH 7.5, 30 mM NaCl, 0.05% Triton X-100). Each sample was loaded into standard glass capillaries, and measurements were performed at 60% laser power setting. Dissociation constant Kd was obtained by plotting the normalized fluorescence (Fnorm) against the logarithm of ligand concentration. Experiments were performed in triplicates and the Kd model of the MO Affinity Analysis software (Nanotemper Technologies, Munich, Germany) was used for data fitting.
(§2) Figure 5 Na-ASP-2 selectively binds ascr#3 but not oscr#10. Binding of ascarosides and their fatty acid moieties by Pry1 and Na-ASP-2 as measured by microscale thermophoresis. (A,G) Palmitic acid; (B,H) ascr#3; (C,I) oscr#10; (D,J) (R)-8-hydroxynonanoic acid; (E,K) (R, E)-8-hydroxynon-2-enoic acid; (F,L) 9-hydroxynonanoic acid. Pry1 binds palmitic acid and free hydroxylated nanonoic acids with similar affinities but binds neither the ascarosides ascr#3 and oscr#10. Na-ASP-2 binds palmitic acid, ascr#3 and free hydroxylated nanonoic acids with similar affinities but not oscr#10. The Kd values are indicated in each figure with N/A (not applicable) where there is no binding. Data represent mean ± SD of three independent experiments.

Pry1 [2] = target: T2, Pry1 (Saccharomyces cerevisiae, UniProt P47032); experiment: Microscale thermophoresis; conditions: His-tagged Pry1, N/A where there is no binding, mean ± SD of three experiments
T2 construct: made in house; host or cells: Escherichia coli BL21
T2 sequence (P47032 20-299): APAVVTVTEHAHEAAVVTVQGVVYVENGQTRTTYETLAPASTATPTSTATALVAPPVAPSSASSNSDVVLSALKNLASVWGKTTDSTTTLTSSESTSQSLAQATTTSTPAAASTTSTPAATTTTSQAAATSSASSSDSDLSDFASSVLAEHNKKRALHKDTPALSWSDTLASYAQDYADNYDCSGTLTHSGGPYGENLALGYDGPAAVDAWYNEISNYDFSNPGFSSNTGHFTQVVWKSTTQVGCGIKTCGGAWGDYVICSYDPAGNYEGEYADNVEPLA
Procedure: as §1, §2

Na-ASP-2 [3] = target: T1, Na-ASP-2; experiment: [3H]-cholesterol radioligand binding and competition assay; conditions: for competition with [3H]-cholesterol for binding to Na-ASP-2: unlabeled ligand vs 50 pmol [3H]-cholesterol, 100 pmol Na-ASP-2
Procedure: (§3) The radioligand binding assay was performed as described previously (Im et al., [2005]; Choudhary and Schneiter, [2012]). Hundred pmol of purified untagged CAP protein (Na-ASP-2 or Pry1) in binding buffer (20 mM Tris, pH 7.5, 30 mM NaCl, 0.05% Triton X-100) was incubated for 1 h at 30 °C with different concentrations of either [^3H]-cholesterol or [^3H]-palmitic acid. Protein was removed from unbound ligand by adsorption to Q-sepharose beads (GE Healthcare, USA), the beads were washed, protein was eluted and the protein-bound radioligand was quantified by scintillation counting. For competition binding assays, specified concentrations of unlabeled cholesterol, palmitic acid or ligands, were included in the binding reaction. Non-specific binding was determined by performing the assays without the addition of protein. Statistical significance of data was analyzed by multiple t-test (GraphPad Prism, La Jolla, CA).
Figure 3 Na-ASP-2 binds both cholesterol and free palmitic acid. (A) Ligand binding of [^3H]-cholesterol to Na-ASP-2. Purified Na-ASP-2 (100 pmol) was incubated with increasing concentrations of [^3H]-cholesterol (100–400 pmol), in absence and presence of 400 pmol of unlabeled cholesterol (chol). The protein was separated from the unbound ligand by adsorption to an anion-exchange matrix and the protein-bound radioligand was quantified by scintillation counting. […] Data represent mean ± SD of 3 independent experiments. (B) Competitive binding of unlabeled cholesterol (50 or 5,000 pmol) to Na-ASP-2. Binding of [^3H]-cholesterol (50 pmol) to Na-ASP-2 (100 pmol) was assessed in the presence of the indicated concentrations of unlabeled cholesterol (chol). Each data point is the average of duplicate assays and represents the amount of [^3H]-cholesterol bound relative to a control containing no unlabeled cholesterol. (C) Ligand binding of [^3H]-palmitic acid to Na-ASP-2. Purified Na-ASP-2 (100 pmol) was incubated with increasing concentrations of [^3H]-palmitic acid (100–400 pmol), in absence and presence of 400 pmol of unlabeled palmitic acid (pal). (D) Competitive binding of unlabeled palmitic acid (50 or 5,000 pmol) to Na-ASP-2. Binding of [^3H]-palmitic acid (50 pmol) to Na-ASP-2 (100 pmol) was assessed in the presence of the indicated concentration of unlabeled palmitic acid (pal). Each data point is the average of duplicate assays and represents the amount of [^3H]-palmitic acid bound relative to a control containing only labeled palmitic acid. […]
(§4) Figure 4 Binding of ligands to Na-ASP-2 and Pry1. […] Binding of [^3H]-cholesterol (50 pmol) to Na-ASP-2 (100 pmol) was assessed in the presence of (50 pmol and 500 pmol) of unlabeled ascarosides or fatty acid moieties (1-5) (B) Fatty acids moieties and ascr#3 compete with [^3H]-palmitic acid for binding to Na-ASP-2. […]

Na-ASP-2 [4] = target: T1, Na-ASP-2; experiment: [3H]-palmitic acid radioligand binding and competition assay; conditions: for competition with [3H]-palmitic acid for binding to Na-ASP-2: 50 or 500 pmol unlabeled ligand vs 50 pmol [3H]-palmitic acid, 100 pmol Na-ASP-2
Procedure: as §3
Figure 3 Na-ASP-2 binds both cholesterol and free palmitic acid. (A) Ligand binding of [^3H]-cholesterol to Na-ASP-2. Purified Na-ASP-2 (100 pmol) was incubated with increasing concentrations of [^3H]-cholesterol (100–400 pmol), in absence and presence of 400 pmol of unlabeled cholesterol (chol). The protein was separated from the unbound ligand by adsorption to an anion-exchange matrix and the protein-bound radioligand was quantified by scintillation counting. […] Data represent mean ± SD of 3 independent experiments. […] Binding of [^3H]-cholesterol (50 pmol) to Na-ASP-2 (100 pmol) was assessed in the presence of the indicated concentrations of unlabeled cholesterol (chol). […] Binding of [^3H]-palmitic acid (50 pmol) to Na-ASP-2 (100 pmol) was assessed in the presence of the indicated concentration of unlabeled palmitic acid (pal). […]
as §4

Pry1 [5] = target: T2, Pry1; experiment: [3H]-palmitic acid competition binding assay; conditions: 100 pmol Pry1; for competition with [3H]-palmitic acid for binding to Pry1, excess ligand: excess unlabeled ligand (500 pmol) vs 50 pmol [3H]-palmitic acid; for competition with [3H]-palmitic acid for binding to Pry1: unlabeled ligand vs 50 pmol [3H]-palmitic acid
Procedure: as §3
Figure 4 Binding of ligands to Na-ASP-2 and Pry1. (A) Free fatty acids and ascarosides fail to compete with [^3H]-cholesterol for binding to Na-ASP-2. Binding of [^3H]-cholesterol (50 pmol) to Na-ASP-2 (100 pmol) was assessed in the presence of (50 pmol and 500 pmol) of unlabeled ascarosides or fatty acid moieties (1-5) (B) Fatty acids moieties and ascr#3 compete with [^3H]-palmitic acid for binding to Na-ASP-2. (C) Only fatty acids moieties compete [^3H]-palmitic acid for binding to Pry1. Competitive binding was tested with either 50 or 500 pmol of the unlabeled ligands and 50 pmol of [^3H]-palmitic acid for binding to 100 pmol purified Na-ASP-2 or Pry1. The ascarosides tested are (1) (ascr#3) and (2) (oscr#10) while the fatty acids are 3 [(R)-8-hydroxynonanoic acid], 4 [(R, E)-8-hydroxynon-2-enoic acid], and 5 (9-hydroxynonanoic acid). Data represent mean ± SD of 3 independent experiments. Asterisks denote statistical significance relative to the control containing only the radiolabeled ligand and either purified Na-ASP-2 or Pry1. (**p < 0.001; *p < 0.01). n.s., not significant.

Sm-VAL-4 = target: Sm-VAL-4; parameters: method as in earlier work; conditions: ref Kelleher et al., 2014, Darwiche et al., 2016, 2018, Asojo et al., read-out: cholesterol binding affinity; cited from earlier work
Bm-VAL-1 [6] = target: Bm-VAL-1; parameters: method as in earlier work; conditions: ref Kelleher et al., 2014, Darwiche et al., 2016, 2018, Asojo et al., read-out: cholesterol binding affinity; cited from earlier work
Hp-VAL-4 = target: Hp-VAL-4; parameters: method as in earlier work; conditions: ref Kelleher et al., 2014, Darwiche et al., 2016, 2018, Asojo et al., read-out: cholesterol binding affinity; cited from earlier work
Pry1 [7] = target: Pry1; parameters: method as in earlier work; conditions: ref Kelleher et al., 2014, Darwiche et al., 2016, 2018, Asojo et al., read-out: Kd for palmitic acid; cited from earlier work
Bm-VAL-1 [8] = target: Bm-VAL-1; parameters: method as in earlier work; conditions: ref Kelleher et al., 2014, Darwiche et al., 2016, 2018, Asojo et al., read-out: Kd for palmitic acid; cited from earlier work
tablysin-15 = conditions: ref Kelleher et al., 2014, Darwiche et al., 2016, 2018, Asojo et al., read-out: Kd for palmitic acid; cited from earlier work

T1 sequence (Q7Z1H1 entry or part of it): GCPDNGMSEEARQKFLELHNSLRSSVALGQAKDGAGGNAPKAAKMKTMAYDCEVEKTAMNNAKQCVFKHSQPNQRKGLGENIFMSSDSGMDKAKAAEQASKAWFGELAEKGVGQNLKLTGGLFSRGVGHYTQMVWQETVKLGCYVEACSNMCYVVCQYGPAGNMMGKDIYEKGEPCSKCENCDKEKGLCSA

Compound `O=C(O)CCCCCCCCO` [9-hydroxynonanoic acid] has a Kd (Na-ASP-2 [1]) of 230 ± 2.5 µM and a Kd (Pry1 [2]; read-out: Kd) of 650 ± 1.7 µM.
`C[C@@H](O)CCCCCCC(=O)O` [(R)-8-hydroxynonanoic acid] gave a Kd (Na-ASP-2 [1]) of 500 ± 2.3 µM and a Kd (Pry1 [2]; read-out: Kd) of 600 ± 1.9 µM.
In the case of `C[C@@H](O)CCCC/C=C/C(=O)O` [(R,E)-8-hydroxynon-2-enoic acid, (R, E)-8-hydroxynon-2-enoic acid], the Kd (Na-ASP-2 [1]) is reported as 290 ± 2 µM and the Kd (Pry1 [2]; read-out: Kd) is reported as 900 ± 0.9 µM.
In the case of `C[C@H](CCCC/C=C/C(=O)O)O[C@@H]1O[C@@H](C)[C@H](O)C[C@H]1O` [ascr#3], the Kd (Na-ASP-2 [1]) is reported as 142 µM, the “competition with [3H]-cholesterol for binding to Na-ASP-2” value (from here on “competition with [3H]-cholesterol”) (Na-ASP-2 [3]) is reported as “neither ascarosides [ascr#3 (1) and oscr#10 (2)] nor fatty acids (3-5) competed” and the “competition with [3H]-palmitic acid for binding to Na-ASP-2” value (Na-ASP-2 [4]) is reported as “competed”. For the same compound, the “competition with [3H]-palmitic acid for binding to Pry1, excess ligand” value (Pry1 [5]) was “could not be competed”, the “competition with [3H]-palmitic acid for binding to Pry1” value (Pry1 [5]) was “neither ascr#3 (1) nor oscr#10 (2) bound” and the Kd (Pry1 [2]) was “does not bind”.
In the case of `CC(C)CCC[C@@H](C)[C@H]1CC[C@H]2[C@@H]3CC=C4C[C@@H](O)CC[C@]4(C)[C@H]3CC[C@]12C` [cholesterol], the Kd (Na-ASP-2 [3]) is given as 2.1 µM, the “competition with [3H]-cholesterol” value (Na-ASP-2 [3]) is given as “reduced binding of the radioligand” and the Kd (Sm-VAL-4) is given as 2.4 µM. For the same compound, the Kd (Bm-VAL-1 [6]) was 0.9 µM and the Kd (Hp-VAL-4) was 1.53 µM.
With `C[C@@H]1O[C@@H](OCCCCCCCCC(=O)O)[C@H](O)C[C@H]1O` [oscr#10] the Kd (Na-ASP-2 [1]; microscale thermophoresis, His-tagged Na-ASP-2, N/A where there is no binding, mean ± SD of three experiments) was “does not bind”, the “competition with [3H]-cholesterol” value (Na-ASP-2 [3]) was “neither ascarosides [ascr#3 (1) and oscr#10 (2)] nor fatty acids (3-5) competed” and the “competition with [3H]-palmitic acid for binding to Pry1, excess ligand” value (Pry1 [5]) was “could not be competed”. For the same compound, the “competition with [3H]-palmitic acid for binding to Pry1” value (Pry1 [5]) was “neither ascr#3 (1) nor oscr#10 (2) bound” and the Kd (Pry1 [2]) was “does not bind”.
In the case of `CCCCCCCCCCCCCCCC(=O)O` [palmitic acid, reference compound], the Kd (Na-ASP-2 [1]) is reported as 220 ± 1 µM, the Kd (Na-ASP-2 [4]) is reported as 95 µM and the “competition with [3H]-palmitic acid for binding to Na-ASP-2” value (Na-ASP-2 [4]) is reported as “reduced”. For the same compound, the Kd (Pry1 [7]) was 112 µM, the Kd (Bm-VAL-1 [8]) was 83 µM and the Kd (tablysin-15) was 94 µM. It also gave a Kd (Pry1 [2]; read-out: Kd) of 120 ± 1.2 µM.
